Where “and” joins values, the source holds several entries; their conditions need not be identical. Equal values may be shown once. Read-outs that look alike come from different tables or passages of the source.
How the values were obtained:
[1] = tested on: total microbial count (APC); type: cell-based
[2] = tested on: Fusarium graminearum 46779; type: cell-based
[3] = tested on: coliforms (ECC); type: cell-based
[4] = tested on: barley; assay: Germination of treated barley kernels (percentage of living kernels); type: in vivo; details: 500 ppm PAA
Experimental: The grains treated with PAA as described in Example 4 were further tested for germination. After the treatment, the PAA solution was decanted and kernels were immediately transferred into Petri dishes and placed between two wet paper towels for germination tests. The treated kernels were not washed with water. The germination continued in a water bath at room temperature for 2 days. Germination was evaluated by the percentage of living kernels in a sample of barley.

[5] = steeped barley, 500 ppm PAA, pH = 10.0, 5 s
[6] = steeped barley, 500 ppm PAA, pH = 10.0, 30 s
[7] = steeped barley, 500 ppm PAA, unadjusted (pH=3.1), 5 s
[8] = steeped barley, 500 ppm PAA, unadjusted (pH=3.1), 30 s
[9] = test on day 2, treated once, day 2 (after steeping), 500 ppm PAA, 2:1, 10 minutes, 20° C.
[10] = test on day 4, treated once, day 2, 500 ppm PAA, 10 minutes
[11] = test on day 4, treated twice, days 2 and 4, 500 ppm PAA, 10 min each
[12] = germinated barley treated before kilning, 500 ppm PAA, pH = 3, 30 s, testing after germination
[13] = germinated barley treated before kilning, 500 ppm PAA, pH = 3, 30 s, testing after kilning, * = complete kill
[14] = germinated barley treated before kilning, 500 ppm PAA, pH = 9, 30 s, testing after germination
[15] = germinated barley treated before kilning, 500 ppm PAA, pH = 9, 30 s, testing after kilning, * = complete kill
[16] = germinated barley, 500 ppm PAA, pH = 3.1, 30 seconds
[17] = germinated barley, 500 ppm PAA, pH = 9.0, 30 seconds
[18] = steeped barley, 500 ppm PAA, pH = 3.1 (unadjusted), 30 seconds, 20° C.
[19] = steeped barley, 500 ppm PAA, pH = 6.5, 5 s
[20] = steeped barley, 500 ppm PAA, pH = 6.5, 30 s
[21] = steeped barley, 500 ppm PAA, pH = 9, 5 s
[22] = steeped barley, 500 ppm PAA, pH = 9, 30 s
[23] = steeped barley, 500 ppm PAA, pH = 9.0, 30 seconds, 20° C.
[24] = steeped barley, 500 ppm PAA, pH = 9, 10 min

## CC(=O)OO [PAA, peracetic acid]
[1]; [5]
  APC Log10 Reduction: 0.79 Log10
[1]; [6]
  APC Log10: 7.35 Log10
  APC Log10 Reduction: 1.72 Log10
[1]; [7]
  APC Log10: 8.19 Log10
  APC Log10 Reduction: 0.29 Log10
[1]; [8]
  APC Log10: 6.54 Log10
  APC Log10 Reduction: 1.93 Log10
[1]; [9]
  APC Log10: 3.84 Log10
  APC Log10 Reduction: 4.30 Log10
[1]; [10]
  APC Log10: 6.72 Log10
  APC Log10 Reduction: 2.5 Log10 and 2.52 Log10
[1]; [11]
  APC Log10: 5.78 Log10
  APC Log10 Reduction: 3.46 Log10
[2]
  kill of Fusarium: complete kill
[3]; [12]
  ECC Log10: 6.59 Log10
  ECC Log10 Reduction: 1.67 Log10
[3]; [13]
  ECC Log10: 0.00* Log10
  ECC Log10 Reduction: 3.25* Log10
[3]; [14]
  ECC Log10: 6.68 Log10
  ECC Log10 Reduction: 1.58 Log10
[3]; [15]
  ECC Log10: 0.00* Log10
  ECC Log10 Reduction: 3.25* Log10
[3]; [16]
  ECC Log10 (CFU/10 g barley grains): 6.83 Log10
  ECC Log10 Reduction: 1.16 Log10
[3]; [17]
  ECC Log10 (CFU/10 g barley grains): 7.39 Log10
  ECC Log10 Reduction: 0.60 Log10
[3]; [18]
  ECC Log10 (CFU/10 g barley grains): 5.99 Log10
  ECC Log10 Reduction: 1.91 Log10
[3]; [19]
  ECC Log10: 5.94 Log10
  ECC Log10 Reduction: 1.66 Log10
[3]; [20]
  ECC Log10: 5.26 Log10
  ECC Log10 Reduction: 2.34 Log10
[3]; [21]
  ECC Log10: 5.48 Log10
  ECC Log10 Reduction: 1.73 Log10
[3]; [22]
  ECC Log10: 4.78 Log10
  ECC Log10 Reduction: 2.43 Log10
[3]; [23]
  ECC Log10 (CFU/10 g barley grains): 5.79 Log10
  ECC Log10 Reduction: 2.11 Log10
[3]; [24]
  ECC Log10: 3.63 Log10
  ECC Log10 Reduction: 3.57 Log10
[3]; [5]
  ECC Log10: 6.49 Log10
  ECC Log10 Reduction: 1.11 Log10
[3]; [6]
  ECC Log10: 5.27 Log10
  ECC Log10 Reduction: 2.33 Log10
[3]; [7]
  ECC Log10: 4.60 Log10
  ECC Log10 Reduction: 2.60 Log10
[3]; [8]
  ECC Log10: 2.60 Log10
  ECC Log10 Reduction: 4.60 Log10
[3]; [9]
  ECC Log10: 0.00 Log10
  ECC Log10 Reduction: 4.36 Log10
[3]; [10]
  ECC Log10: 5.41 Log10
  ECC Log10 Reduction: 1.8 Log10 and 1.82 Log10
[3]; [11]
  ECC Log10: 4.95 Log10
  ECC Log10 Reduction: 2.28 Log10
[3]; unadjusted PAA 500 ppm, treated after germination
  kill of ECC microorganisms: complete kill
[4]; pH 3.1, 30 s, germination 2 days
  Germination: 100%
[4]; pH 3.1, 5 min, germination 2 days
  Germination: 100%
[4]; pH 3.1, 10 min, germination 2 days
  Germination: 94%
[4]; pH 3.1, 30 min, germination 2 days
  Germination: 73%
[4]; pH 9.0, 30 s, germination 2 days
  Germination: 100%
[4]; pH 9.0, 5 min, germination 2 days
  Germination: 100%
[4]; pH 9.0, 10 min, germination 2 days
  Germination: 100%
[4]; pH 9.0, 30 min, germination 2 days
  Germination: 99%
[4]; pH 9.0, longer treatment times (10 min and 30 min)
  Germination: ~100%
[4]; short treatment times (0.5-5 min)
  effect on germination: practically did not affect the germination
[4]; unadjusted (acidic) solution, longer treatment times (10 min and especially 30 min)
  effect on germination: suppressed germination

Source: patent US20240251790A1 (priority 2021, published 2024)
